Results taken from US20210137857A1, “A COMPOSITION FOR TREATMENT OR PREVENTION OF A NEURODEGENERATIVE DISEASE” (NEILOS S.R.L., priority 2017, published 2021).

What was measured:
[1] = human, in vivo; cited from earlier work
[2] = Solubility tests on the test compounds; assay type: physicochemical

| Molecule | patients treated with increase in serum transaminases [1] | patients with abdominal cramps, anorexia, nausea, vomiting and diarrhoea [1] | Solubility test RESULT [2] |
| --- | --- | --- | --- |
| Nc1c2c(nc3ccccc13)CCCC2 [Tacrine] | more than 50% | more than a third of patients | – |
| Amyloid β peptide 1-42 [Peptide β1-42] | – | – | POSITIVE |
